Reference: PMC9732821, “Neurotrophic Activity and Its Modulation by Zinc Ion of a Dimeric Peptide Mimicking the Brain-Derived Neurotrophic Factor N-Terminal Region” (ACS Chemical Neuroscience, 2022)

B1: brain-derived neurotrophic factor (protein, UniProt P23560 1-247, looked up)
chain: MTILFLTMVISYFGCMKAAPMKEANIRGQGGLAYPGVRTHGTLESVNGPKAGSRGLTSLADTFEHVIEELLDEDQKVRPNEENNKDADLYTSRVMLSSQVPLEPPLLFLLEEYKNYLDAANMSMRVRRHSDPARRGELSVCDSISEWVTAADKKTAVDMSGGTVTVLEKVPVSKGQLKQYFYETKCNPMGYTKEGCRGIDKRHWNSQCRTTQSYVRALTMDSKKRIGWRFIRIDTSCVCTLTIKRGR
modifications: full-length
notes: full-length human BDNF produced recombinantly in Escherichia coli

System: ERK
Experiment: ERK phosphorylation in HEK 293 cells, which do not express TrkB
Assay type: cell-based, human
Settings: increasing concentrations, 10 min, unstimulated control 100%
Protocol: Figure S1. Evaluation of d-bdnf mechanism of action. A) ERK phosphorylation levels detected in HEK293T cells, after stimulation (10 min) with increasing concentrations of BDNF (white columns) or d-bdnf (grey columns) normalized to the unstimulated control (CTRL, black column) set to 100%.
Dunnett’s multiple comparison test. B) ERK phosphorylation levels detected in differentiated SH-SY5Y cells, after stimulation (10 min) with a combination of a single concentration of BDNF (1 nM referred to monomeric form) with increasing concentrations (10 nM-100 µM) of d-bdnf (left); B) a combination of a single concentration of d-bdnf (10 µM) with increasing concentrations (0.074 nM – 10 nM) of BDNF (right). […] C) Representative confocal fluorescence images of SH-SY5Y cells differentiated with retinoic acid (RA) and treated acutely with BDNF, d-bdnf or a combination of the two. […] Scale bar: 50 µm.D) Scatter dot plot of the mean ± SEM fluorescence intensity of the analyzed fields (nfields) for the different samples (NT: nfields=9 and total ncells= 285; BDNF: nfields=10 and total ncells= 297; d-bdnf: nfields=10 and total ncells= 255 cells; BDNF+d-bdnf: nfields=10 and total ncells= 253 cells; **p<0.01 according to […]
HSDPARRGELSV-NH2 (m-bdnf): Rt = 25.2 min. ESI-MS: calculated for C54H91N21O18: 1322.4 […]
SRAGPHLRDVSE-NH2 (s-bdnf): Rt = 27.4 min. ESI-MS: calculated for C54H91N21O18: 1322.4 […]

Molecule	ERK phosphorylation in HEK 293 cells
HSDPARRGELSVC-C-VSLEGRRAPDSH (disulfide) [d-bdnf]	not significantly different
B1	not significantly different
